From patent US20100144733A1, “Compounds, compositions and methods comprising heteroaromatic derivatives” (Institute for OneWorld Health, priority 2008, published 2010)
Read-outs that look alike come from different tables or passages of the source.

Molecular target: T1, CFTR (Homo sapiens, UniProt P13569)
T1 construct: endogenous in cells; host or cells: T84 human colonic cells (ECACC)
Experiment: T84 assay (FLIPR membrane potential dye, forskolin/IBMX-stimulated CFTR channel activity)
Assay type: cell-based
Experimental: (§1) For example, Human colonic T84 cells can be acquired from the European Collection of Cell Cultures (ECACC) and grown in standard culture conditions as described by the supplier. On the day before assay 25,000 T84 cells per well are plated into standard black walled, clear bottom 384-well assay plates in standard growth medium consisting of DMEM:F12 with 10% FBS and incubated overnight. On the day of the assay the plates are washed using a standard assay buffer (HBSS with 10 mM Hepes) and incubated for 15 minutes in serum free cell culture medium before the addition of a commercially available membrane potential sensitive fluorescent dye (FLIPRRed membrane potential dye, Molecular Devices Corporation). T84 cells are incubated with the FLIPRRed membrane potential dye for 45 minutes in the presence and absence of test compound before being transferred to a commercially available fluorescence imaging plate reader (FLIPR384, Molecular Devices Corporation). Fluorescence levels are monitored continuously every second for 150 seconds; after an initial 10 second baseline, CFTR channel activity is stimulated through the addition of 10 μM forskolin in the presence of 100 μM of the phosphodiesterase inhibitor iso-butyl-methylxanthine (IBMX). Addition of the forskolin leads to the activation of intracellular adenylyl cylase 1, elevating cAMP levels and results in the phosphorylation and opening of CFTR anion channels. CFTR channel opening causes chloride ion efflux and subsequent depolarization of the cells, which is measured by an increase in fluorescence. CFTR inihibitor compounds prevent cell depolarization and the associatred increase in fluorescence.
as §1, with “Human colonic” for “For example, Human colonic”, “T84 cells are acquired from” for “T84 cells can be acquired from”, “(ECACC) and are grown in” for “(ECACC) and grown in”, “10 μM Forskolin in the” for “10 μM forskolin in the”, “fluorescence. CFTR inhibitor compounds prevent” for “fluorescence. CFTR inihibitor compounds prevent”, “and the associated increase in” for “and the associatred increase in”

[1] = imidazole and triazole-containing compounds (Tables 13, 14, 14′), read-out: IC50 (μM) (T84 assay)
[2] = oxadiazole-containing compounds (a series), average of at least 2 runs unless annotated n = 1, read-out: IC50

T1 sequence (P13569 whole entry): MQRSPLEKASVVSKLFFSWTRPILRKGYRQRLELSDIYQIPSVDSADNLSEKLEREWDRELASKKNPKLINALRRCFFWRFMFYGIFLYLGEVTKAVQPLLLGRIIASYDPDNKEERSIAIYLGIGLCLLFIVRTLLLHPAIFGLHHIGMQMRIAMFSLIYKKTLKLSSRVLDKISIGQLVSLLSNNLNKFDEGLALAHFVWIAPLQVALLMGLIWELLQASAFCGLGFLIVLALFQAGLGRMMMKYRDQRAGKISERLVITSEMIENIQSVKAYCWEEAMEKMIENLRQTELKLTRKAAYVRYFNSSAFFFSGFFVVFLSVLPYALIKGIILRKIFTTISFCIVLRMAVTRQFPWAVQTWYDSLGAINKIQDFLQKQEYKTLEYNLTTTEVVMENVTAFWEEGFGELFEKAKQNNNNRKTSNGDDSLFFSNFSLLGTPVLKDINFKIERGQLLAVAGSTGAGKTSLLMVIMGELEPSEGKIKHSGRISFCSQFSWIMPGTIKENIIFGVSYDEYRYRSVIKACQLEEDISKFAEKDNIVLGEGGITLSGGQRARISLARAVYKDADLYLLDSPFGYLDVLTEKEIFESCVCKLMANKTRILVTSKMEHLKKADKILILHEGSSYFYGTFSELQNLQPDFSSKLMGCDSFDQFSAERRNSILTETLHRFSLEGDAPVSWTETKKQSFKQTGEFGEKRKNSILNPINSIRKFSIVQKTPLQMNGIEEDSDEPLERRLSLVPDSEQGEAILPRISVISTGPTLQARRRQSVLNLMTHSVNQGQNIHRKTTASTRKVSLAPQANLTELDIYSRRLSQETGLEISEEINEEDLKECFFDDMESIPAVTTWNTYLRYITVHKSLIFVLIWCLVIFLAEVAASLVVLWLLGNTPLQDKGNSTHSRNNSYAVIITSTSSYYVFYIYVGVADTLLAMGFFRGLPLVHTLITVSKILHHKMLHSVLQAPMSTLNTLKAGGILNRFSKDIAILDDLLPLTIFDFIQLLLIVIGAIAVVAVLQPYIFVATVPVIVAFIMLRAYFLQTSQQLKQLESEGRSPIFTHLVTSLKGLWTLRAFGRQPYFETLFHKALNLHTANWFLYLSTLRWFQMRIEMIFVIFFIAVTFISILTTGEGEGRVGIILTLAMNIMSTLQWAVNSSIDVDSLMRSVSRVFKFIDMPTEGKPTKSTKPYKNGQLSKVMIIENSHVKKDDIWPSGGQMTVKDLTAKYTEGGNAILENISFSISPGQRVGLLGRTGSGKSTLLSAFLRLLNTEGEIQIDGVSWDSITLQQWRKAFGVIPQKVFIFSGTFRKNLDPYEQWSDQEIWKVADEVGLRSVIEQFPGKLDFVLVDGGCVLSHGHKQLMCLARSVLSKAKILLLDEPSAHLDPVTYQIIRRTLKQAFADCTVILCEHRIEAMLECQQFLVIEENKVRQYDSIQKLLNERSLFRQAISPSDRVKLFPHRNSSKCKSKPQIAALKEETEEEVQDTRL

Row | SMILES | IC50 [1] [µM] | IC50 [2] [µM]
1 | O=C(NCc1ccccc1Cl)c1ncn(-c2cc(Cl)c(O)c(Cl)c2)n1 [30i, N-(2-chlorobenzyl)-1-(3,5-dichloro-4-hydroxyphenyl)-1H-1,2,4-triazole-3-carboxamide] | 27.8 | –
2 | O=C(c1nc(-c2cc(Br)c(O)c(Br)c2)no1)N1CCN(c2ccc(F)cc2F)CC1 [31a] | – | 17.1
3 | O=C(c1nc(-c2cc(Br)c(O)c(Br)c2)no1)N1CCN(c2cccc(F)c2)CC1 [32a, (3-(3,5-dibromo-4-hydroxyphenyl)-1,2,4-oxadiazol-5-yl)(4-(3-fluorophenyl)piperazin-1-yl)methanone] | – | 17.2
4 | CC(NC(=O)c1ncn(-c2cc(Cl)c(O)c(Cl)c2)n1)c1ccc(Br)cc1 (centres unmarked) [32i, N-(1-(4-bromophenyl)ethyl)-1-(3,5-dichloro-4-hydroxyphenyl)-1H-1,2,4-triazole-3-carboxamide] | 10.3 | –
5 | O=C(NCc1ccccc1)c1nc(-c2cc(Br)c(O)c(Br)c2)no1 [33a, N-benzyl-3-(3,5-dibromo-4-hydroxyphenyl)-1,2,4-oxadiazole-5-carboxamide] | – | 17.8
6 | O=C(Nc1ccc(Oc2ccc(C(F)(F)F)cc2)cc1)c1nc(-c2cc(Br)c(O)c(Br)c2)no1 [34a, 3-(3,5-dibromo-4-hydroxyphenyl)-N-(4-(4-(trifluoromethyl)phenoxy)phenyl)-1,2,4-oxadiazole-5-carboxamide] | – | 18.3
7 | O=C(NCc1ccccc1F)c1nc(-c2cc(Br)c(O)c(Br)c2)no1 [35a, 3-(3,5-dibromo-4-hydroxyphenyl)-N-(2-fluorobenzyl)-1,2,4-oxadiazole-5-carboxamide] | – | 19.2
8 | O=C(NCc1ccccc1C(F)(F)F)c1ncn(-c2cc(Cl)c(O)c(Cl)c2)n1 [35i, 1-(3,5-dichloro-4-hydroxyphenyl)-N-(2-(trifluoromethyl)benzyl)-1H-1,2,4-triazole-3-carboxamide] | 23.8 | –
9 | O=C(NCc1ccccc1C(F)(F)F)c1nc(-c2cc(Br)c(O)c(Br)c2)no1 [36a, 3-(3,5-dibromo-4-hydroxyphenyl)-N-(2-(trifluoromethyl)benzyl)-1,2,4-oxadiazole-5-carboxamide] | – | 21.4
10 | O=C(NCc1ccc(C(F)(F)F)cc1)c1nc(-c2cc(Br)c(O)c(Br)c2)no1 [37a, 3-(3,5-dibromo-4-hydroxyphenyl)-N-(4-(trifluoromethyl)benzyl)-1,2,4-oxadiazole-5-carboxamide] | – | 23
11 | CN(Cc1cccc(OC(F)(F)F)c1)C(=O)c1nc(-c2cc(Br)c(O)c(Br)c2)no1 [38a, 3-(3,5-dibromo-4-hydroxyphenyl)-N-methyl-N-(3-(trifluoromethoxy)benzyl)-1,2,4-oxadiazole-5-carboxamide] | – | 2.52
12 | O=C(NCc1cccc(N2CCCCC2)c1)c1ncn(-c2cc(Cl)c(O)c(Cl)c2)n1 [38i, 1-(3,5-dichloro-4-hydroxyphenyl)-N-(3-(piperidin-1-yl)benzyl)-1H-1,2,4-triazole-3-carboxamide] | 5.61 | –
13 | O=C(O)COc1c(Br)cc(-c2noc(C(=O)N3CCC(Cc4ccccc4)CC3)n2)cc1Br [39a, 2-(4-(5-(4-benzylpiperidine-1-carbonyl)-1,2,4-oxadiazol-3-yl)-2,6-dibromophenoxy) acetic acid] | – | 26.7
14 | O=C(NCc1ccc(-c2ccc(C(F)(F)F)cn2)cc1)c1ncn(-c2cc(Cl)c(O)c(Cl)c2)n1 [39i, 1-(3,5-dichloro-4-hydroxyphenyl)-N-(4-(5-(trifluoromethyl)pyridin-2-yl)benzyl)-1H-1,2,4-triazole-3-carboxamide] | 2.51 | –
15 | O=C(NCc1ccc(Cl)cc1)c1nc(-c2cc(Br)c(O)c(Br)c2)no1 [40a, N-(4-chlorobenzyl)-3-(3,5-dibromo-4-hydroxyphenyl)-1,2,4-oxadiazole-5-carboxamide] | – | 27.1
16 | O=C(NCc1ccccc1OC(F)F)c1ncn(-c2cc(Cl)c(O)c(Cl)c2)n1 [41i, 1-(3,5-dichloro-4-hydroxyphenyl)-N-(2-(difluoromethoxy)benzyl)-1H-1,2,4-triazole-3-carboxamide] | 22.4 | –

Row | SMILES | IC50 [1] [µM] | IC50 [2] [µM]
17 | O=C(NCc1ccc(F)c(F)c1)c1ncn(-c2cc(Cl)c(O)c(Cl)c2)n1 [42i, 1-(3,5-dichloro-4-hydroxyphenyl)-N-(3,4-difluorobenzyl)-1H-1,2,4-triazole-3-carboxamide] | 15.9 | –
18 | O=C(NCc1cc(F)c(F)c(F)c1)c1ncn(-c2cc(Cl)c(O)c(Cl)c2)n1 [43i, 1-(3,5-dichloro-4-hydroxyphenyl)-N-(3,4,5-trifluorobenzyl)-1H-1,2,4-triazole-3-carboxamide] | 13.3 | –
19 | O=C(NCc1ccc(N2CCCCC2)cc1)c1ncn(-c2cc(Cl)c(O)c(Cl)c2)n1 [45i, 1-(3,5-dichloro-4-hydroxyphenyl)-N-(4-(piperidin-1-yl)benzyl)-1H-1,2,4-triazole-3-carboxamide] | 8.22 | –
20 | O=C(NCc1cccc(-n2cccn2)c1)c1ncn(-c2cc(Cl)c(O)c(Cl)c2)n1 [46i] | 28.6 | –
21 | O=C(NCc1cccc(Cl)c1)c1ncn(-c2cc(Cl)c(O)c(Cl)c2)n1 [47i, N-(3-chlorobenzyl)-1-(3,5-dichloro-4-hydroxyphenyl)-1H-1,2,4-triazole-3-carboxamide] | 12.6 | –
22 | O=C(NCc1ccc(Cl)cc1)c1ncn(-c2cc(Cl)c(O)c(Cl)c2)n1 [48i, N-(4-chlorobenzyl)-1-(3,5-dichloro-4-hydroxyphenyl)-1H-1,2,4-triazole-3-carboxamide] | 8.67 | –
23 | C=CCN(Cc1cccc(C(F)(F)F)c1)C(=O)c1nc(-c2cc(Br)c(O)c(Br)c2)no1 [59a, N-allyl-3-(3,5-dibromo-4-hydroxyphenyl)-N-(3-(trifluoromethyl)benzyl)-1,2,4-oxadiazole-5-carboxamide] | – | 3.35
24 | CCN(Cc1cccc(C(F)(F)F)c1)C(=O)c1nc(-c2cc(Br)c(O)c(Br)c2)no1 [60a, 3-(3,5-Dibromo-4-hydroxyphenyl)-N-ethyl-N-(3-(trifluormethyl)benzyl)-1,2,4-oxadiazole-5-carboxamide] | – | 12.6
25 | O=C(c1ccccc1)C1CCN(C(=O)c2ncn(-c3cc(Cl)c(O)c(Cl)c3)n2)CC1 [61i, (4-benzoylpiperidin-1-yl)(1-(3,5-dichloro-4-hydroxyphenyl)-1H-1,2,4-triazol-3-yl)methanone] | 26.7 | –
26 | CN(Cc1ccccc1)C(=O)c1nc(-c2cc(Cl)c(O)c(Cl)c2)no1 [62a, N-benzyl-3-(3,5-dichloro-4-hydroxyphenyl)-N-methyl-1,2,4-oxadiazole-5-carboxamide] | – | 18.6
27 | O=C(c1noc(-c2cc(Br)c(O)c(Br)c2)n1)N1CCC(Cc2ccccc2)CC1 [66a, (4-benzylpiperidin-1-yl)(5-(3,5-dibromo-4-hydroxyphenyl)-1,2,4-oxadiazol-3-yl)methanone] | – | 11.7
28 | COC(=O)C1CCN(C(=O)COc2c(Br)cc(-c3noc(C(=O)N4CCC(Cc5ccccc5)CC4)n3)cc2Br)CC1 [68a, methyl 1-(2-(4-(5-(4-benzylpiperidine-1-carbonyl)-1,2,4-oxadiazol-3-yl)-2,6-dibromophenoxy)acetyl)piperidine-4-carboxylate] | – | 10.3
29 | O=C(COc1c(Br)cc(-c2noc(C(=O)N3CCC(Cc4ccccc4)CC3)n2)cc1Br)N(CCO)CCO [71a, 2-(4-(5-(4-benzylpiperidine-1-carbonyl)-1,2,4-oxadiazol-3-yl)-2,6-dibromophenoxy)-N,N-bis(2-hydroxyethyl)acetamide] | – | 18.9
30 | O=C(NCc1cccc(C(F)(F)F)c1)c1noc(-c2cc(Cl)c(O)c(Cl)c2)n1 [74a, 5-(3,5-dichloro-4-hydroxyphenyl)-N-(3-(trifluoromethyl)benzyl)-1,2,4-oxadiazole-3-carboxamide] | – | 2.6
31 | Cc1noc(C)c1CCNC(=O)c1ncn(-c2cc(Cl)c(O)c(Cl)c2)n1 [74i, 1-(3,5-dichloro-4-hydroxyphenyl)-N-(2-(3,5-dimethylisoxazol-4-yl)ethyl)-1H-1,2,4-triazole-3-carboxamide] | 1.28 | –
32 | O=C(NCc1cccc(OC(F)(F)F)c1)c1noc(-c2cc(Cl)c(O)c(Cl)c2)n1 [75a, 5-(3,5-dichloro-4-hydroxyphenyl)-N-(3-(trifluoromethoxy)benzyl)-1,2,4-oxadiazole-3-carboxamide] | – | 2.09
